Data from patent US10287530B2, “Surfactants based on monounsaturated fatty alcohol derivatives” (priority 2013, dated 2019).
Like-named read-outs stand apart in the source and are kept apart here.

Key:
[1] = tested on: zein, yellow corn (maize) protein
Method: The zein test is based on solubilization by surfactants of a yellow corn (maize) protein that is normally insoluble in water unless it is denatured. The test gravimetrically determines the amount of zein dissolved by a surfactant solution. The solubility of zein in surfactant solutions correlates well with skin irritation or roughness caused by the surfactant. […] A higher zein number corresponds to a greater degree of irritation.
A 1% actives solution of each test surfactant (120 mL) is prepared. The pH of each solution is adjusted to about 7.0 with dilute aq. sulfuric acid or dilute aq. sodium hydroxide. The surfactant solution is warmed to 45° C. Zein powder (1.50 g) is added to each of three jars. Surfactant (25.0 g of 1% actives solution) is added to each jar, and to one empty jar to be used as a blank. The solutions are mixed using magnetic stirring on a temperature-controlled hotplate at 45° C. for 60 min. Each mixture is then centrifuged (2500 rpm, 15 min.), and undissolved zein powder is isolated by vacuum filtration. The residue is washed with deionized water and dried (55° C., 24 h) to constant weight. The amount of undissolved zein protein is found gravimetrically, and the results from three runs are averaged to give the % of solubilized zein and zein number.

[2] = Agricultural dispersant screening: sedimentation of milled pesticide powder; format: physicochemical; set-up: key to Sedimentation results at 1 h: Trace of sediment=“Tr”; settings: for Rating: overall, versus DF-200 and DF-500 controls
Method: The potential of a composition for use as an agricultural dispersant is evaluated by its performance with five typical pesticide active ingredients: atrazine, chlorothalonil, diuron, imidacloprid and tebuconazole. The performance of each dispersant sample is evaluated in comparison with two standard Stepsperse® dispersants: DF-200 and DF-500 (products of Stepan Company).
A screening sample is prepared as shown below for each active. Wetting agents, clays, and various additives are included or excluded from the screening process as needed. The weight percent of pesticide (“technical material”) in the formulation depends on the desired active level of the final product. The active level chosen is similar to other products on the market. If this is a new active ingredient, then the highest active level is used.
Samples are evaluated in waters of varying hardness, in this case 342 ppm and 1000 ppm. The initial evaluations are performed at ambient temperature. Other temperatures can be evaluated as desired. The 342 ppm water is made by dissolving anhydrous calcium chloride (0.304 g) and magnesium chloride hexahydrate (0.139 g) in deionized water and diluting to 1 L. The 1000 ppm water is made similarly using 0.89 g of calcium chloride and 0.40 g of magnesium chloride hexahydrate.
Technical material (60-92.5 wt. %), anionic wetting agent (0.5-1.0 wt. %), silica (0.5-1.0 wt. %), and clay (balance) are blended in a suitable container. The blend is milled to a particle size of at least a d(90) of <20μ using a hammer and air/jet mills as needed. Test dispersant (0.1 g) is added to test water (50 mL) in a beaker and stirred 1-2 min. Milled powder containing the technical material (1.0 g) is added to the dispersant solution and stirred until all powder is wet (2-5 min.). The mixture is transferred to a 100-mL cylinder using additional test water for rinsing the beaker and is then diluted to volume. The cylinder is stoppered and inverted ten times, then allowed to stand. Visual inspection is performed at t=0.5, 1.0, 2.0, and 24 hours, and the amount of sediment observed (in mL) is recorded. Trace of sediment=“Tr” (see Table 5).

[3] = Surfactant phase behavior study by cross-polarized microscopy; format: physicochemical; settings: in deionized water, room temperature (20-22° C.); boundaries are estimates (±5%)
Method: Phase behavior is observed using an Olympus BH-2 cross-polarized microscope at 100-400× and room temperature (20° C. to 22° C.). The monounsaturated C11 alcohol derivatives (sulfates, ethoxylate sulfates, and alcohol ethoxylates) are compared with their saturated analogs. Samples are prepared by diluting the most concentrated product gradually with deionized water. When the surfactant concentration approaches a phase transition, the concentration is varied at 2-4% intervals to estimate the phase boundary. The actives level reported in Table 6 for each phase boundary is within ±5% of the true boundary. Samples are loaded between a microscope slide and cover glass and are allowed to equilibrate before observation. Microscopic texture is analyzed and used to determine the phase. For some samples, an AR 2000 rheometer (TA Instruments) is used to measure viscosity at 25° C. to further verify phase behavior.

[4] = Interfacial tension (IFT) against light mineral oil, synergy study with cationic surfactant; format: physicochemical; settings: for IFT at 0.1% actives/mineral oil (blend): 1:1 molar blend of the anionic with Ammonyx Cetac 30, 0.1% actives, light mineral oil; for Calculated IFT (no synergy): expected IFT of the 1:1 molar blend with Ammonyx Cetac 30 by ideal mixing; for Synergy?: measured versus expected IFT of the 1:1 molar blend with Ammonyx Cetac 30; for IFT at 0.1% actives (single component): 0.1 wt. % active against light mineral oil, ambient temperature
Method: (§1) The surfactant blends tested are prepared at a 1:1 molar ratio without any pH adjustment. Dilutions are made using deionized water to the desired actives level. Actives amounts are wt. % unless indicated otherwise. Appearances are reported at ambient temperature for samples prepared within the last 24 h.
Interfacial tension (IFT) of all the individual components and their blends is measured at 0.1 wt. % active against light mineral oil at ambient temperature using a Kruss DSA-20 pendent drop tensiometer. The drop is blown out at 600 μL/min., and a video is recorded for 100 s. The video frames taken during the last 15 s are analyzed and used for the IFT calculation.
For blends having an IFT less than 0.5 mN/m, the IFT is determined using a spinning drop tensiometer (University of Texas 500) at 25° C. Oil density=0.877 g/cm^3 and surfactant density=0.997 g/cm^3 are used for the IFT calculation.
The expected IFT for a blend is calculated based on ideal mixing (non-synergistic) using the active component in each blend. The equation used is given as: Expected IFT=X*IFTa+(1−X)*IFTb where X is the actives % of component A, IFTa is the IFT of component A, and IFTb is the IFT of component B. If the measured IFT for a blend is less than the expected IFT, then the blend is synergistic. If the measured IFT for a blend is higher than the expected IFT, the system is antagonistic.

[5] = Appearance and solubility of surfactants and of 1:1 molar blends with cationic surfactant; format: physicochemical; settings: for Appearance, 1.0%: 1:1 molar blend of the anionic with Ammonyx Cetac 30, 1.0% actives
Method: as §1

[6] = Chlorothalonil, test water 342 ppm
[7] = Chlorothalonil, test water 1000 ppm
[8] = Imidacloprid, test water 342 ppm
[9] = Imidacloprid, test water 1000 ppm
[10] = Tebuconazole, test water 342 ppm
[11] = Tebuconazole, test water 1000 ppm

Substance | Sedimentation results at 1 h ([2]; Atrazine, test water 342 ppm) | Sedimentation results at 24 h ([2]; Atrazine, test water 342 ppm) | Sedimentation results at 1 h ([2]; Atrazine, test water 1000 ppm) | Sedimentation results at 24 h ([2]; Atrazine, test water 1000 ppm) | Sedimentation results at 1 h [2, 6] | Sedimentation results at 24 h [2, 6] | Sedimentation results at 1 h [2, 7] | Sedimentation results at 24 h [2, 7] | Sedimentation results at 1 h ([2]; Diuron, test water 342 ppm) | Sedimentation results at 24 h ([2]; Diuron, test water 342 ppm) | Sedimentation results at 1 h ([2]; Diuron, test water 1000 ppm) | Sedimentation results at 24 h ([2]; Diuron, test water 1000 ppm) | Sedimentation results at 1 h [2, 8] | Sedimentation results at 24 h [2, 8] | Sedimentation results at 1 h [2, 9] | Sedimentation results at 24 h [2, 9] | Sedimentation results at 1 h [2, 10] | Sedimentation results at 24 h [2, 10] | Rating [2] | Estimated Phase Region as a Function of % Actives Level: Isotropic Clear [3] | also measured
1-Undecanol, 1EO Ether Sulfate, Sodium Salt [Sat. C11 alcohol 1EO Na sulfate] | Tr | 1 mL | 0.5 mL | 1 mL | 0.5 mL | 1 mL | 0.5 mL | 2 mL | 0.5 mL | 1 mL | 1 mL | 2 mL | 1 mL | 2 mL | 2.5 mL | 2 mL | Tr | 0.5 mL | equal | 0-36 % actives | % solubilized zein [1]: 33.7%; zein number [1]: 68.0; Sedimentation results at 1 h [2, 11]: 5 mL; Sedimentation results at 24 h [2, 11]: 3 mL; Estimated Phase Region as a Function of % Actives Level: Hexagonal [3]: 36-58 % actives; Estimated Phase Region as a Function of % Actives Level: Lamellar [3]: 58-72 % actives; Estimated Phase Region as a Function of % Actives Level: Solid/gum/paste [3]: 72-100 % actives; IFT at 0.1% actives/mineral oil (blend) [4]: 0.23 mN/m; Calculated IFT (no synergy) [4]: 6.44 mN/m; Synergy? [4]: very high; IFT at 0.1% actives (single component) [4]: 12.52 mN/m; Solubility [5]: fair-poor; Appearance, 0.1% ([5]; 1:1 molar blend of the anionic with Ammonyx Cetac 30, 0.1% actives, ambient temperature): hazy liquid; Appearance, 1.0% ([5]; ambient temperature): separated
Undecylenic Alcohol, 1EO Ether Sulfate, Sodium Salt [Unsat. C11 alcohol 1EO Na sulfate] | Tr | 1 mL | 0.5 mL | 1 mL | Tr | 1 mL | 0.5 mL | 1 mL | 0.5 mL | 1 mL | 1 mL | 2 mL | 3 mL | 4 mL | 3, 3 mL | 3, 3 mL | Tr | 2 mL | equal | 0-64 % actives | % solubilized zein ([1]; 1% actives solution, pH about 7.0, 45° C., 60 min, average of three runs): 8.3%; zein number ([1]; relative to 1% actives Stepanol WA-Extra PCK (SLS) control = 100, higher = more irritating, average of three runs): 16.7; Sedimentation observation (flock) [2, 11]: flocked; Estimated Phase Region as a Function of % Actives Level: Solid/gum/paste [3]: 74-100 % actives; Estimated Phase Region as a Function of % Actives Level: Solid/isotropic [3]: 64-74 % actives; IFT at 0.1% actives/mineral oil (blend) [4]: 0.13 mN/m; Calculated IFT (no synergy) [4]: 3.27 mN/m; Synergy? [4]: very high; IFT at 0.1% actives (single component) [4]: 6.18 mN/m; Solubility [5]: good; Appearance, 1.0% ([5]; ambient temperature): separated
